Results published in ChEMBL document CHEMBL2331215, “Discovery of novel N-substituted oxindoles as selective m1 and m4 muscarinic acetylcholine receptors partial agonists” (ACS Med Chem Lett, 2013).
pEC50, pIC50: −log10 of the molar value. Active and inactive are the calls of the source. No cut-off for these calls is given here.

What was measured:
[1] = test system: Mus musculus; experiment: Induction of seizures in ddY mouse at 300 mg/kg, sc measured for 45 mins after drug injection; assay type: organism-based; design: dose 300 mg/kg, route subcutaneous; conditions: in vivo, 0.75 h
[2] = target: T1, Muscarinic acetylcholine receptor M4 (Homo sapiens) (UniProt P08173); experiment: Agonist activity at M4 receptor (unknown origin) at 10 uM by calcium mobilization assay; assay type: functional
T1 sequence (whole entry): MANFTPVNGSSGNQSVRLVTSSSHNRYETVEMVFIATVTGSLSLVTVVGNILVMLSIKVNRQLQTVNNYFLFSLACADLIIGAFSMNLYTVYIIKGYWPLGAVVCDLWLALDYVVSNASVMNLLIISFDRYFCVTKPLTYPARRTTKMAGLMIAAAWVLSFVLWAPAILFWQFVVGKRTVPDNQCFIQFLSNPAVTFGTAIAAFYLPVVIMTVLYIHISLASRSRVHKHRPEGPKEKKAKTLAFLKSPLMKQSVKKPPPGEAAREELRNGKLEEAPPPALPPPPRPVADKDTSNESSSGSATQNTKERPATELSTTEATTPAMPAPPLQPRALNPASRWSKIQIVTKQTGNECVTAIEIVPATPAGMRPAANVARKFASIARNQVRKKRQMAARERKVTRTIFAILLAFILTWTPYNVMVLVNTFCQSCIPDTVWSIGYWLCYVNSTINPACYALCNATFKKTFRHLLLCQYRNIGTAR

[3] = target: T1, Muscarinic acetylcholine receptor M4 (Homo sapiens); experiment: Agonist activity at M4 receptor (unknown origin) at 3 uM by calcium mobilization assay; assay type: functional
[4] = target: Muscarinic acetylcholine receptor M3 (Homo sapiens) (UniProt P20309); experiment: Agonist activity at M3 receptor (unknown origin) at 3 uM by calcium mobilization assay; assay type: functional
[5] = target: T2, Muscarinic acetylcholine receptor M1 (Homo sapiens) (UniProt P11229); experiment: Agonist activity at M1 receptor (unknown origin) at 3 uM by calcium mobilization assay; assay type: functional
T2 sequence (whole entry): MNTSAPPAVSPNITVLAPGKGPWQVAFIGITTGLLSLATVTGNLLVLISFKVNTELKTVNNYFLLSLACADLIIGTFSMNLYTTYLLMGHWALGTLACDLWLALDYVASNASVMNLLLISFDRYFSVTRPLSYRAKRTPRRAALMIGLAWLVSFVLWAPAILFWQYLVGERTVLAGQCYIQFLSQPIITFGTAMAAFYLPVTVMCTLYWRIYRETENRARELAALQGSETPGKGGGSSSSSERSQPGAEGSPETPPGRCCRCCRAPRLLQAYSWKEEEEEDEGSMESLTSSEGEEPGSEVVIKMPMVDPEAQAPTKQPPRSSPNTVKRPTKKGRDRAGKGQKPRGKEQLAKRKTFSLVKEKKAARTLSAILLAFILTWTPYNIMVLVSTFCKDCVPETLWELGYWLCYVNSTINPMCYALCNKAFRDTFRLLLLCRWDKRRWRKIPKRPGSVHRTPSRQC

[6] = target: T3, Muscarinic acetylcholine receptor M5 (Homo sapiens) (UniProt P08912); experiment: Agonist activity at M5 receptor (unknown origin) at 3 uM by calcium mobilization assay; assay type: functional
T3 sequence (whole entry): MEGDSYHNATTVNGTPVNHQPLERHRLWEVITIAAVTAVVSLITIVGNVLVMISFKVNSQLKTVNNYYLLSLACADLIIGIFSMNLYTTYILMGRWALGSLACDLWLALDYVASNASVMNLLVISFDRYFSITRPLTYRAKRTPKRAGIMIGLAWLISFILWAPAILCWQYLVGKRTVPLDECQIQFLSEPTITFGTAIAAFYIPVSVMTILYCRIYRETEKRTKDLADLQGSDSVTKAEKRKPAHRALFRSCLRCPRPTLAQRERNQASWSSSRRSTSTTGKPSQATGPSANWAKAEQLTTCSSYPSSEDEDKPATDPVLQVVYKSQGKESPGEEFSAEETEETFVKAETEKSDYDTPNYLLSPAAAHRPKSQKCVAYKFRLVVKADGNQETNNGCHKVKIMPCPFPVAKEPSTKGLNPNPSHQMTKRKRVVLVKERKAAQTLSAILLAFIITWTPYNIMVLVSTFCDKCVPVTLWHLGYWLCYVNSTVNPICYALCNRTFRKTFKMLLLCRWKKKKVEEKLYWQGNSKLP

[7] = target: T4, Muscarinic acetylcholine receptor M2 (Homo sapiens) (UniProt P08172); experiment: Agonist activity at M2 receptor (unknown origin) at 3 uM by calcium mobilization assay; assay type: functional
T4 sequence (whole entry): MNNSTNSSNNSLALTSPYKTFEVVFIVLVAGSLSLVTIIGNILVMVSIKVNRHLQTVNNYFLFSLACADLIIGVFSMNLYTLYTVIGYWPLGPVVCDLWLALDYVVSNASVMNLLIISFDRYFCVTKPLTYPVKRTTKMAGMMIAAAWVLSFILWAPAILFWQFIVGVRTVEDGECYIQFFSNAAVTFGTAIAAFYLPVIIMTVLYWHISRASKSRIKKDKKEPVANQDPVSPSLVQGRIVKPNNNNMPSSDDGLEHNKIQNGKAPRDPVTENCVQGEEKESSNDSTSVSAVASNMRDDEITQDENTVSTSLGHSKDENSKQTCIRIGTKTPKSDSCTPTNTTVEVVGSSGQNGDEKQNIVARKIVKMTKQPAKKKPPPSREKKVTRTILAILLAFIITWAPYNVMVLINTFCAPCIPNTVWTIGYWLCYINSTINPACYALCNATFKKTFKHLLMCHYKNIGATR

[8] = test system: Cynomolgus monkey; experiment: Cardiotoxicity in telemetered cynomolgus monkey assessed as increase in heart rate at 1 to 3 mg/kg, sc measured after 1 to 4 hrs by telemetry method; assay type: toxicity, organism-based, Macaca fascicularis; design: route subcutaneous; conditions: in vivo
[9] = test system: Cynomolgus monkey; experiment: Cardiotoxicity in telemetered cynomolgus monkey assessed as prolongation of QRS duration at 1 to 3 mg/kg, sc measured after 1 to 4 hrs by telemetry method; assay type: toxicity, organism-based, Macaca fascicularis; design: route subcutaneous; conditions: in vivo
[10] = test system: Cynomolgus monkey; experiment: Induction of miosis in sc dosed cynomolgus monkey; assay type: organism-based, Macaca fascicularis; conditions: in vivo
[11] = test system: Cynomolgus monkey; experiment: Induction of salivation in sc dosed cynomolgus monkey; assay type: organism-based, Macaca fascicularis; conditions: in vivo
[12] = test system: Cynomolgus monkey; experiment: Induction of drowsiness in sc dosed cynomolgus monkey; assay type: organism-based, Macaca fascicularis; conditions: in vivo
[13] = test system: Cynomolgus monkey; experiment: Cardiotoxicity in telemetered cynomolgus monkey assessed as increase in mean blood pressure at 1 to 3 mg/kg, sc measured after 1 to 4 hrs by telemetry method; assay type: toxicity, organism-based, Macaca fascicularis; design: route subcutaneous; conditions: in vivo
[14] = test system: Cynomolgus monkey; experiment: Cardiotoxicity in telemetered cynomolgus monkey assessed as prolongation of QTc interval at 1 to 3 mg/kg, sc measured after 1 to 4 hrs by telemetry method; assay type: toxicity, organism-based, Macaca fascicularis; design: route subcutaneous; conditions: in vivo
[15] = test system: Mus musculus; experiment: Induction of salivation in ddY mouse at 10 to 30 mg/kg, sc measured for 30 mins after drug administration; assay type: organism-based; design: dose 10-30 mg/kg, route subcutaneous; conditions: in vivo, 0.5 h
[16] = test system: Cynomolgus monkey; experiment: Induction of vomiting in sc dosed cynomolgus monkey; assay type: organism-based, Macaca fascicularis; conditions: in vivo
[17] = test system: Rattus norvegicus; experiment: Potentiation of haloperidol-induced catalepsy in Sprague-Dawley rats at 30 mg/kg, sc administered 15 mins after haloperidol injection measured after 45 mins; assay type: ADME, organism-based; design: dose 30 mg/kg, route subcutaneous; conditions: in vivo, 0.75 h
[18] = target: Voltage-gated inwardly rectifying potassium channel KCNH2 (Homo sapiens, UniProt Q12809); experiment: Inhibition of human ERG assessed as decrease in tail current amplitude measured after 5 mins by whole cell patch clamp technique
[19] = target: T2, Muscarinic acetylcholine receptor M1 (Homo sapiens); experiment: Partial agonist activity at human M1 receptor in CHO cells assessed as calcium mobilization at 3 uM after 60 mins by FLIPR assay; assay type: functional, cell-based
[20] = target: Muscarinic acetylcholine receptor M3 (Homo sapiens) (UniProt P20309); experiment: Partial agonist activity at human M3 receptor in CHO cells assessed as calcium mobilization at 3 uM after 60 mins by FLIPR assay; assay type: functional, cell-based
[21] = target: T3, Muscarinic acetylcholine receptor M5 (Homo sapiens); experiment: Partial agonist activity at human M5 receptor in CHO cells assessed as calcium mobilization at 3 uM after 60 mins by FLIPR assay; assay type: functional, cell-based
[22] = target: T5, Muscarinic acetylcholine receptor M4 (Homo sapiens, UniProt P08173); experiment: (§1) Partial agonist activity at human M4 receptor co-expressed with Galpha16 in CHO cells assessed as calcium mobilization after 60 mins by FLIPR assay; assay type: functional, cell-based
T5 sequence (P08173 whole entry): T1 sequence (whole entry)

[23] = target: T1, Muscarinic acetylcholine receptor M4 (Homo sapiens); experiment: as §1; assay type: functional, cell-based
[24] = target: T4, Muscarinic acetylcholine receptor M2 (Homo sapiens); experiment: Partial agonist activity at human M2 receptor co-expressed with Galpha16 in CHO cells assessed as calcium mobilization at 3 uM after 60 mins by FLIPR assay; assay type: functional, cell-based
[25] = target: T1, Muscarinic acetylcholine receptor M4 (Homo sapiens); experiment: Partial agonist activity at human M4 receptor co-expressed with Galpha16 in CHO cells assessed as calcium mobilization at 3 uM after 60 mins by FLIPR assay; assay type: functional, cell-based
[26] = organism: Rattus norvegicus; conditions: Sprague-Dawley, 0.1 to 1 mg/kg
[27] = target: T1, Muscarinic acetylcholine receptor M4 (Homo sapiens); experiment: Partial agonist activity at human M4 receptor co-expressed with Galpha16 in CHO cells assessed as calcium mobilization at 30 nM after 60 mins by FLIPR assay; assay type: functional, cell-based

Sequence of Muscarinic acetylcholine receptor M3 (Homo sapiens) (P20309 whole entry, looked up): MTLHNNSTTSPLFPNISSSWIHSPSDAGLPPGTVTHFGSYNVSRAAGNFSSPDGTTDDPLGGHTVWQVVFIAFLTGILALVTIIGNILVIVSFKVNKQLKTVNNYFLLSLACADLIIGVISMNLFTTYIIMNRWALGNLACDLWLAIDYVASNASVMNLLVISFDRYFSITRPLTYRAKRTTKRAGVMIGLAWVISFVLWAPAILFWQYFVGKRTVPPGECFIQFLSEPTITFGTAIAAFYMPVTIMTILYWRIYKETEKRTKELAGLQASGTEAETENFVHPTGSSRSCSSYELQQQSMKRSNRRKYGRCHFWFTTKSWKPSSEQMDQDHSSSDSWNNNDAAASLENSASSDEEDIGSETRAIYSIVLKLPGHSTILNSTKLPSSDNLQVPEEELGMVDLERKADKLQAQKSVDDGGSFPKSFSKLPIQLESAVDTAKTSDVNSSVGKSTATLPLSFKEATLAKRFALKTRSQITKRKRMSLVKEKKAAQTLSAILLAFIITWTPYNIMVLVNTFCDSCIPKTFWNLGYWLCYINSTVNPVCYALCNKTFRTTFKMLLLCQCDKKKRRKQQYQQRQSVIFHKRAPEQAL
Sequence of Voltage-gated inwardly rectifying potassium channel KCNH2 (Q12809 whole entry): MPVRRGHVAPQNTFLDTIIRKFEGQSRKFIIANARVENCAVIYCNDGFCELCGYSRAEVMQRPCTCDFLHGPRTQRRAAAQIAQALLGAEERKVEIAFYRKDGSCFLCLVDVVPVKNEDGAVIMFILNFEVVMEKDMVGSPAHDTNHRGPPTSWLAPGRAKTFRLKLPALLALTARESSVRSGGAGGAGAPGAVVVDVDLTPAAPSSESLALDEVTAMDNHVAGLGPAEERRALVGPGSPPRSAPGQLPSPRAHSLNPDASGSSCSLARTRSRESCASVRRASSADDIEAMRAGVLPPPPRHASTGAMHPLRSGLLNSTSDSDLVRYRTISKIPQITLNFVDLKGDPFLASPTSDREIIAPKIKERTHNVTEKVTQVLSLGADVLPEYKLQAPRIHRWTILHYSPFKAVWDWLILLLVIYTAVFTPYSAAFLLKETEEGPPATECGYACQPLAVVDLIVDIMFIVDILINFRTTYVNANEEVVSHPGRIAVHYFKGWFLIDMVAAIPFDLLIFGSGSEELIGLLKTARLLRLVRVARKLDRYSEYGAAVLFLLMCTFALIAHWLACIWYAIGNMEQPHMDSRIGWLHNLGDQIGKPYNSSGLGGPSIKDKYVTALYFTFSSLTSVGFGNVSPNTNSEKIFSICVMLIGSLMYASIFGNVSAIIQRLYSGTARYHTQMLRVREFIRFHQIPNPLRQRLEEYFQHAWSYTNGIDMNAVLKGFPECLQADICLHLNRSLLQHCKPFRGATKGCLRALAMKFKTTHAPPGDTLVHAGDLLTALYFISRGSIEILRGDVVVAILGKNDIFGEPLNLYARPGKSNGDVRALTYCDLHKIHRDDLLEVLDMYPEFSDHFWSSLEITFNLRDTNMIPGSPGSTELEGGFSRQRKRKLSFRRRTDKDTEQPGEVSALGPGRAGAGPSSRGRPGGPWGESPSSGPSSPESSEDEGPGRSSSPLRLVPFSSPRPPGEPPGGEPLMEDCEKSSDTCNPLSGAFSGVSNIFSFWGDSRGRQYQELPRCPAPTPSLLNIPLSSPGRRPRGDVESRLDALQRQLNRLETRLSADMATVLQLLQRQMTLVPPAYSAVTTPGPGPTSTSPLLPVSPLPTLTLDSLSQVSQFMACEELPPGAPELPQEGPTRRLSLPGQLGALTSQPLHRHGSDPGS

CC[C@@H]1C(=O)OC[C@@H]1Cc1cncn1C [PILOCARPINE]
Activity [1]: Toxic

CC(C)=CCN1CCC(N2C(=O)C(C)(C)c3ccccc32)CC1
Activity [2]: 33% | Activity [3]: 14%

CCOC(=O)N1CCC(CN2CC[C@@H](N3C(=O)Cc4ccccc43)C2)CC1
Activity [4]: 8% | Activity [5]: 88% | Activity [6]: 4% | Activity [3]: 86% | Activity [7]: 27%

CCCCCCOc1nsnc1C1=CCCN(C)C1.O=C(O)C(O)C(O)C(=O)O [XANOMELINE TARTRATE]
Activity [8]: Toxic | Activity [9]: Toxic | Activity [4]: 85% | Activity [10]: Toxic | Activity [11]: Toxic | Activity [5]: 145% | Activity [12]: Toxic | Activity [13]: Toxic | Activity [14]: Toxic | Activity [15]: Toxic | Activity [6]: 33% | Activity [3]: 83% | Activity [16]: Toxic | Activity [7]: 34% | Activity [17]: Toxic

CCOC(=O)N1CCC(O)(CN2CC[C@H](N3C(=O)Cc4ccccc43)C2)CC1
pIC50 [18]: 5.41 | Activity [19]: 57% | Activity [20]: 31% | Activity [21]: 3% | pEC50 [22]: 6.49 | Intrinsic activity [23]: 45% | Activity [24]: 12%

CCOC(=O)N1CCC(CN2CC[C@H](N3C(=O)Cc4ccccc43)C2)(OC)CC1
Intrinsic activity [25]: 13%

CCOC(=O)N1CCC(CN2CC(N3C(=O)Cc4ccccc43)C2)CC1
Activity [4]: 3% | Activity [5]: 65% | Activity [6]: 3% | Activity [3]: 46% | Activity [7]: 2%

CCOC(=O)N1CCC(CN2CCCC(N3C(=O)Cc4ccccc43)CC2)CC1 (stereo unspecified)
Activity [4]: 2% | Activity [5]: 7% | Activity [6]: 3% | Activity [3]: 4% | Activity [7]: 4%

CCOC(=O)N1CCC(CN2CCC(N3C(=O)Cc4ccccc43)CC2)CC1
Activity [4]: 2% | Activity [5]: 88% | Activity [6]: 6% | Activity [3]: 33% | Activity [7]: 6%

CO/N=C(\C#N)[C@H]1CN2CCC1CC2 [SABCOMELINE]
inhibition [26]: Active | pEC50 [22]: 8.24 | Intrinsic activity [23]: 28%

CCOC(=O)N1CCC(C)(CN2CC[C@H](N3C(=O)Cc4ccccc43)C2)CC1
pIC50 [18]: 5.46 | Activity [19]: 49% | Activity [20]: 2% | Activity [21]: 4% | pEC50 [22]: 7.82 | Intrinsic activity [23]: 65% | Activity [24]: 3%

CCOC(=O)N1CCC(CN2CC[C@H](N3C(=O)Cc4ccccc43)C2)CC1
Activity [4]: 7% | Intrinsic activity [27]: 79% | Activity [5]: 83% | Activity [19]: 83% | Activity [20]: 7% | Activity [21]: 5% | Activity [6]: 5% | Activity [24]: 30% | Activity [3]: 124% | Activity [7]: 30%
